This note sets out measurements from ChEMBL document CHEMBL1152511, “Structural basis for alpha-conotoxin potency and selectivity” (Bioorg Med Chem, 2009).

For experiment [1], the target named is Neuronal acetylcholine receptor; alpha3/beta2 (Homo sapiens, UniProt P17787+P32297). The experiment is described as follows: Inhibition of alpha3beta2 nAChR. It counts as protein-complex assay.
Experiment [2] concerns the target Neuronal acetylcholine receptor; alpha6/beta2 (Homo sapiens, UniProt P17787+Q15825). The experiment is described as follows: Inhibition of alpha6beta2 nAChR. It counts as protein-complex assay.
Experiment [3] in a line: Selectivity ratio of IC50 for alpha6beta2 nAChR to IC50 for alpha3beta2 nAChR.
The species named for experiment [4] is Macaca mulatta. The experiment is described as follows: Binding affinity to monkey alpha-6-alpha-4-beta-2 nAChR.
The species named for experiment [5] is Macaca mulatta. The experiment is described as follows: Binding affinity to monkey alpha-6-(non-alpha-4)-beta-2 nAChR.
Experiment [6] is filed under the species Macaca mulatta. The experiment is described as follows: Selectivity ratio of monkey alpha-6-alpha-4-beta-2 nAChR over monkey alpha-6-(non-alpha-4)-beta-2 nAChR.
Experiment [7] in a line: Selectivity for alpha3beta2 nAChR over alpha6beta2 nAChR.

What is called IC50 is the midpoint of a concentration-inhibition curve.

Residues, ends and D or L forms follow the SMILES beside them.

Chain of Neuronal acetylcholine receptor; alpha3/beta2 (P17787 whole entry): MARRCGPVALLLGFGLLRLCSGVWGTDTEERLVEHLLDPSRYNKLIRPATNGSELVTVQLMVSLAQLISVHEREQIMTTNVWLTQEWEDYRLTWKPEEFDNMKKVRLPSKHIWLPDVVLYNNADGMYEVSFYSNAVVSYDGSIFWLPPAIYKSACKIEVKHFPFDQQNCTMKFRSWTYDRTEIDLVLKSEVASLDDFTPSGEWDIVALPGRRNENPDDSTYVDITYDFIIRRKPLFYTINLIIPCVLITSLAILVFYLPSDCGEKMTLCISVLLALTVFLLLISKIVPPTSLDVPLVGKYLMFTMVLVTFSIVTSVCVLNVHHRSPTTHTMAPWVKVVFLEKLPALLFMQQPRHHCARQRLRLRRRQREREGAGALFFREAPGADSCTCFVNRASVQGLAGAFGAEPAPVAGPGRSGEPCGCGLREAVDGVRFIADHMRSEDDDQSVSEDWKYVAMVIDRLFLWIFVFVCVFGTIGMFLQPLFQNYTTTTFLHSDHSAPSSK
Chain of Neuronal acetylcholine receptor; alpha3/beta2 (P32297 whole entry): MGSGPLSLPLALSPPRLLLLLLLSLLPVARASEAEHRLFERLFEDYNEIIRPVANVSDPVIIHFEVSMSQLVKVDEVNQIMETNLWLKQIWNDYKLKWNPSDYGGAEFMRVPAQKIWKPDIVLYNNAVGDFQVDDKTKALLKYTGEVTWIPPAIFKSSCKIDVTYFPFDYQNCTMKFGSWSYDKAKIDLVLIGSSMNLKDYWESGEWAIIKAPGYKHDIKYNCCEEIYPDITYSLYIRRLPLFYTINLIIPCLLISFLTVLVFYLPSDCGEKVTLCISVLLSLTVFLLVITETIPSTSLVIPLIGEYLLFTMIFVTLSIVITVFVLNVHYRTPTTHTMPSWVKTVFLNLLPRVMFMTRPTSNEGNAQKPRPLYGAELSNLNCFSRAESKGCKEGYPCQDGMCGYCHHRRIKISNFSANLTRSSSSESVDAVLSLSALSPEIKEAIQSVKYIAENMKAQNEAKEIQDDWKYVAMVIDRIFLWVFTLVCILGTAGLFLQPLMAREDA
Chain of Neuronal acetylcholine receptor; alpha6/beta2 (P17787 whole entry): as the sequence (P17787 whole entry) above
Chain of Neuronal acetylcholine receptor; alpha6/beta2 (Q15825 whole entry): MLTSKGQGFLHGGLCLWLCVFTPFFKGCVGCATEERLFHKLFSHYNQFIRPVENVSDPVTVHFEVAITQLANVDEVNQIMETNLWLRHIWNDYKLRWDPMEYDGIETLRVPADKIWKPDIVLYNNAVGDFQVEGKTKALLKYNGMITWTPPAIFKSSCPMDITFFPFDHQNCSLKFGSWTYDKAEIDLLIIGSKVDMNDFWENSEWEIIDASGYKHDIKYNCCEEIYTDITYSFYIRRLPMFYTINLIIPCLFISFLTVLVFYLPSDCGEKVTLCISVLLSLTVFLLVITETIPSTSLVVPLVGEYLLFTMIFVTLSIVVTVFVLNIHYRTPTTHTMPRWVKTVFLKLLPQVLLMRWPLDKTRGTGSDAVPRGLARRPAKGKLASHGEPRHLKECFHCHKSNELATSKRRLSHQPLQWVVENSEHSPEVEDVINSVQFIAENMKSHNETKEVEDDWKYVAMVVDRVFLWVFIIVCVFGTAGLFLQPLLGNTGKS

Consider `CC(C)C[C@H](NC(=O)[C@H](CC(N)=O)NC(=O)[C@H](CO)NC(=O)[C@H](Cc1cnc[nH]1)NC(=O)[C@H](CCC(=O)O)NC(=O)[C@H](CC(C)C)NC(=O)[C@H](Cc1cnc[nH]1)NC(=O)[C@H](CS)NC(=O)[C@@H](NC(=O)[C@@H]1CCCN1C(=O)[C@H](CC(N)=O)NC(=O)[C@H](CO)NC(=O)[C@H](CS)NC(=O)[C@H](CS)NC(=O)CN)C(C)C)C(=O)N[C@@H](CS)C(=O)O`, for which the IC50 in experiment [1] was found to be 0.5 nM; in experiment [2], 0.39 nM.
Regarding `CC[C@H](C)[C@H](NC(=O)[C@H](Cc1cnc[nH]1)NC(=O)[C@H](CCC(N)=O)NC(=O)[C@H](CC(N)=O)NC(=O)[C@H](CC(N)=O)NC(=O)CNC(=O)[C@H](C)NC(=O)[C@H](CS)NC(=O)[C@H](C)NC(=O)[C@@H]1CCCN1C(=O)[C@H](Cc1cnc[nH]1)NC(=O)[C@H](CO)NC(=O)[C@H](CS)NC(=O)[C@H](CS)NC(=O)CN)C(=O)N[C@@H](CS)C(=O)O`, the IC50 was 1.1 nM in experiment [1] and 3 nM in experiment [2]. Further, the Ratio IC50 in experiment [3] stood at 0.4.
Take `CC(C)C[C@H](NC(=O)[C@H](Cc1cnc[nH]1)NC(=O)[C@H](CS)NC(=O)[C@@H](NC(=O)[C@@H]1CCCN1C(=O)[C@H](CC(N)=O)NC(=O)[C@H](CO)NC(=O)[C@H](CS)NC(=O)[C@H](CS)NC(=O)CN)C(C)C)C(=O)N[C@@H](C)C(=O)N[C@@H](Cc1cnc[nH]1)C(=O)N[C@@H](CO)C(=O)N[C@@H](CC(N)=O)C(=O)N[C@@H](CC(C)C)C(=O)N[C@@H](CS)C(=O)O` (H-GCCSNPVCHLAHSNLC-OH): the Activity came to 51 pM in the experiment filed under Macaca mulatta [4] and 9.7 fM in the experiment filed under Macaca mulatta [5]. In addition, the values for the IC50 in experiment [1] and in experiment [2] were 8.72 nM and 0.16 nM, respectively. In the experiment listed under Macaca mulatta [6], the Selectivity ratio was 5300. In addition, the Ratio IC50 in experiment [3] was 54.5.
Consider `CC[C@H](C)[C@H](NC(=O)[C@H](CCC(N)=O)NC(=O)[C@@H]1CCCN1C(=O)[C@H](CC(N)=O)NC(=O)[C@H](Cc1cnc[nH]1)NC(=O)[C@@H](NC(=O)[C@@H](NC(=O)[C@H](CS)NC(=O)[C@@H](NC(=O)[C@@H]1CCCN1C(=O)[C@H](CC(N)=O)NC(=O)[C@H](CO)NC(=O)[C@H](CS)NC(=O)[C@H](CS)NC(=O)[C@@H]1CCCN1C(=O)[C@H](CC(=O)O)NC(=O)[C@@H](N)CCCNC(=N)N)C(C)C)[C@@H](C)O)C(C)C)C(=O)N[C@@H](CS)C(=O)O` (H-RDPCCSNPVCTVHNPQIC-OH), for which the results for the IC50 in experiment [1] and in experiment [2] were 74.2 nM and 0.95 nM, respectively. Also, the Selectivity ratio in experiment [7] is 75. Moreover, in experiment [3], the Ratio IC50 turned out to be 78.1.
